Converted amounts (≈) assume the structure as drawn. Like-named read-outs stand apart in the source and are kept apart here.

In data set [1] the test system is Plasmodium falciparum chloroquine-resistant clone (W2). Kind of data set: microbe, parasite or virus in culture. Particulars: for IC50: Plasmodium falciparum, W2, P. falciparum W2, anti-HRPII test, read-out: IC50 (dose inhibiting 50% of parasite growth), mean ± SD; for In vitro activity against P. falciparum, in words: P. falciparum W2. Format: cell-based.
The subject of data set [2] is BGM cell line.
Data set [3] relates to Plasmodium berghei NK65. The data set can be described thus: Antimalarial suppressive test in mice infected with P. berghei. The conditions noted are these: for Activity in P. berghei-infected mice, in words: 50 mg/kg by oral route, Table IV experiment.
[4] abbreviates: BGM cells, 24 h, MTT, mean of 3-5 experiments.
Setting [5] is: P. falciparum W2, anti-HRPII test, mean of 3-5 experiments.
Where [6] appears, read: Table IV, 50 mg/kg oral, daily for three days.
Setting [7] is: Table IV, 50 mg/kg oral, daily for three days, vs untreated controls.
The mark [8] stands for this setting: Table V experiment, chloroquine 15 mg/kg.
The mark [9] stands for this setting: Table VI, chloroquine 1.25 mg/kg.
The mark [10] stands for this setting: Table VI, chloroquine 2.5 mg/kg.
Where [11] appears, read: chloroquine at subcurative doses, dose not given.

The IC50 is the concentration that gives 50% inhibition. With `O=C1O[C@H]([C@@H](O)CO)C(O)=C1O` [Ascorbic acid], the IC50 in data set [1] (mean of 3-5 experiments) is not below 50 µg/mL.

For `CC1=C(/C=C/C(C)=C/C=C/C(C)=C/C=C/C=C(C)/C=C/C=C(C)/C=C/C2=C(C)CCCC2(C)C)C(C)(C)CCC1` [Beta carotene], in data set [1], the “Selectivity index (SI) MDL50 / IC50” value is not below 71.4 and the “In vitro activity against P. falciparum, in words” value is reported as “reduced the P. falciparum parasite growth”. Besides, the concentration for half-maximal inhibition (IC50) in data set [1] (mean of 3-5 experiments) was 14 ± 3.1 µg/mL (≈ 26.1 µM). The “MDL50 (minimum lethal dose for 50% of cells), mean ± SD” value in data set [2] (setting [4]) was not below 1000 µg/mL.

With `COc1ccc([C@@H]2CC(=O)c3c(O)cc(O[C@@H]4O[C@H](CO[C@@H]5O[C@@H](C)[C@H](O)[C@@H](O)[C@H]5O)[C@@H](O)[C@H](O)[C@H]4O)cc3O2)cc1O` [Hesperidin], the “In vitro activity against P. falciparum, in words” value in data set [1] was “no activity”. In addition, the “IC50 (dose inhibiting 50% of parasite growth), mean ± SD” value in data set [1] (setting [5]) is not below 50 µg/mL. Moreover, the “IC50 (dose inhibiting 50% of parasite growth), mean ± SD” value in data set [1] (P. falciparum W2, anti-HRPII test, mean of 3-5 experiments, listed as hesperidin) was more than 25 µg/mL. Also, the “MDL50 (minimum lethal dose for 50% of cells), mean ± SD” value in data set [2] (setting [4]) is not below 1000 µg/mL. In addition, in data set [3], the “Activity in P. berghei-infected mice, in words” value was “slightly active”. For the same compound, in data set [3] (setting [6]), the “Survival (average ± SD)” value came to 20 ± 3; the “mean parasitaemia ± SD, 5th day” value worked out at 5.2 ± 0.8; the “mean parasitaemia ± SD, 7th day” value amounted to 9.1 ± 1.3. For the same compound, in data set [3] (setting [7]), the “% Reduction of parasitaemia, 5th day” value came out at 47% and the “% Reduction of parasitaemia, 7th day” value is 38%.

With `[Se]` [Selenium], the “IC50 (dose inhibiting 50% of parasite growth), mean ± SD” value in data set [1] (setting [5]) was not below 50 µg/mL.

As for `O=c1c(O)c(-c2ccc(O)c(O)c2)oc2cc(O)cc(O)c12` [Quercetin], in data set [1], the “Selectivity index (SI) MDL50 / IC50” value was not below 76.9 and the “In vitro activity against P. falciparum, in words” value is on record as “most active flavonoid”. In data set [1] (mean of 3-5 experiments), the IC50 was 13 ± 8.4 µg/mL (≈ 43 µM). For the same compound, the “MDL50 (minimum lethal dose for 50% of cells), mean ± SD” value in data set [2] (setting [4]) was not below 1000 µg/mL. Besides, in data set [3], the “Activity in P. berghei-infected mice, in words” value is listed as “best standard flavonoid”. Further, in data set [3] (setting [6]), the “Survival (average ± SD)” value worked out at 22 ± 6; the “mean parasitaemia ± SD, 5th day” value is reported as 4.7 ± 4.0; the “mean parasitaemia ± SD, 7th day” value is recorded as 8.3 ± 5.1. The “% Reduction of parasitaemia, 7th day” value in data set [3] (setting [7]) is recorded as 44%. Further, the “% Reduction of parasitaemia, 5th day” value in data set [3] (Table IV, 50 mg/kg oral, daily for three days, vs untreated controls, 50 mg/kg) was 52%.

Consider `CC(=O)Oc1c(C)c(C)c2c(c1C)CCC(C)(CCC[C@H](C)CCC[C@H](C)CCCC(C)C)O2` (stereo partly drawn) [Tocopherol acetate], for which, in data set [1], the “Selectivity index (SI) MDL50 / IC50” value is recorded as “Inactive”. In addition, in data set [1] (mean of 3-5 experiments), the IC50 is not below 50 µg/mL. Moreover, the “MDL50 (minimum lethal dose for 50% of cells), mean ± SD” value in data set [2] (setting [4]) is not below 1000 µg/mL.

With `CC(=O)N[C@@H](CS)C(=O)O` [N-Acetylcysteine], the “IC50 (dose inhibiting 50% of parasite growth), mean ± SD” value in data set [1] (setting [5]) is not below 50 µg/mL. Besides, the “MDL50 (minimum lethal dose for 50% of cells), mean ± SD” value in data set [2] was not below 1000 µg/mL.

With `Cc1cc2nc3c(=O)[nH]c(=O)nc-3n(C[C@H](O)[C@H](O)[C@H](O)CO)c2cc1C` [Riboflavin], the “In vitro activity against P. falciparum, in words” value in data set [1] was “reduced the P. falciparum parasite growth”. Moreover, in data set [1] (mean of 3-5 experiments), the IC50 was 8.1 ± 4 µg/mL (≈ 21.5 µM). The “MDL50 (minimum lethal dose for 50% of cells), mean ± SD” value in data set [2] (setting [4]) is not below 1000 µg/mL.

For the compound `[O]=[Zn]` [Zinc oxide], the “In vitro activity against P. falciparum, in words” value in data set [1] is reported as “reduced the P. falciparum parasite growth”. In addition, in data set [1] (setting [5]), the “IC50 (dose inhibiting 50% of parasite growth), mean ± SD” value worked out at 2.7 ± 1.4 µg/mL. The “MDL50 (minimum lethal dose for 50% of cells), mean ± SD” value in data set [2] (setting [4]) was not below 1000 µg/mL.

On to `CCN(CC)CCCC(C)Nc1ccnc2cc(Cl)ccc12` (stereo not drawn) [Chloroquine], for which the IC50 in data set [1] (mean of 3-5 experiments) came out at 0.175 ± 0.02 µg/mL (≈ 0.547 µM). In addition, in data set [3] (Table IV, chloroquine 20 mg/kg), the “% Reduction of parasitaemia, 5th day” value was determined as 100%; the “% Reduction of parasitaemia, 7th day” value is on record as 100%; the “Survival (average ± SD)” value is listed as 24 ± 5; the “mean parasitaemia ± SD, 5th day” value was found to be 0.0 ± 0.0. Also, in data set [3] (Table IV, chloroquine 20 mg/kg), the “mean parasitaemia ± SD, 7th day” value turned out to be 0.0 ± 0.0. Further, in data set [3] (setting [8]), the “% Reduction of parasitaemia, 7th day” value worked out at 65%; the “Survival (average ± SD)” value came out at 24 ± 5; the “mean parasitaemia ± SD, 5th day” value was 0.0 ± 0.0; the “mean parasitaemia ± SD, 7th day” value came to 2.9 ± 1.1. Besides, the “% Reduction of parasitaemia, 5th day” value in data set [3] (Table V experiment, chloroquine 15 mg/kg, sub-curative) is listed as 100%. Also, in data set [3] (setting [9]), the “% Reduction of parasitaemia, 5th day” value is 93%; the “% Reduction of parasitaemia, 7th day” value is given as 49%; the “% Reduction of parasitaemia, 9th day” value amounted to 56%; the “Survival (average ± SD)” value is reported as 19 ± 4. In addition, in data set [3] (setting [9]), the “mean parasitaemia ± SD, 5th day” value was found to be 0.1 ± 0.03%; the “mean parasitaemia ± SD, 7th day” value is given as 7.6 ± 3.3%; the “mean parasitaemia ± SD, 9th day” value came out at 5.1 ± 0.1%. In addition, in data set [3] (setting [10]), the “% Reduction of parasitaemia, 5th day” value stood at 95%; the “% Reduction of parasitaemia, 7th day” value is recorded as 79%; the “% Reduction of parasitaemia, 9th day” value is recorded as 29%; the “Survival (average ± SD)” value is given as 20 ± 9. In addition, in data set [3] (setting [10]), the “mean parasitaemia ± SD, 5th day” value was 0.01 ± 0.1%; the “mean parasitaemia ± SD, 7th day” value worked out at 3.1 ± 5.3%; the “mean parasitaemia ± SD, 9th day” value is 8.4 ± 4.5%. In data set [3] (Table VI, chloroquine 5 mg/kg), the “% Reduction of parasitaemia, 5th day” value came out at 94%; the “% Reduction of parasitaemia, 7th day” value was 69%; the “% Reduction of parasitaemia, 9th day” value is recorded as 57%; the “Survival (average ± SD)” value was 24 ± 4. In data set [3] (Table VI, chloroquine 5 mg/kg), the “mean parasitaemia ± SD, 5th day” value stood at 0.0 ± 0.1%; the “mean parasitaemia ± SD, 7th day” value is on record as 4.7 ± 4.0%; the “mean parasitaemia ± SD, 9th day” value turned out to be 5.1 ± 3.1%. Moreover, in data set [3] (setting [11]), the “Reduction of parasitaemia, day 5” value turned out to be 95% and the “Reduction of parasitaemia, day 7” value came to 79%.

Consider `N[C@@H](CCC(=O)N[C@@H](CS)C(=O)NCC(=O)O)C(=O)O` [L-Glutathione], for which the “IC50 (dose inhibiting 50% of parasite growth), mean ± SD” value in data set [1] was not below 50 µg/mL. Besides, the “MDL50 (minimum lethal dose for 50% of cells), mean ± SD” value in data set [2] is not below 1000 µg/mL.

As to `O=c1c(-c2ccc(O)cc2)coc2cc(O)cc(O)c12` [Genistein], the “Selectivity index (SI) MDL50 / IC50” value in data set [1] (BGM MDL50 / P. falciparum W2 IC50, toxicity considered at SI < 10) is reported as “Inactive”. In addition, the “In vitro activity against P. falciparum, in words” value in data set [1] is on record as “no activity”. Further, the “IC50 (dose inhibiting 50% of parasite growth), mean ± SD” value in data set [1] (setting [5]) came out at 28.8 ± 18.0 µg/mL. The 50% inhibitory concentration (IC50) in data set [1] (mean of 3-5 experiments) was more than 25 µg/mL. Further, the “MDL50 (minimum lethal dose for 50% of cells), mean ± SD” value in data set [2] (setting [4]) is not below 1000 µg/mL.

(Values after PMC6282106, “Commercial drugs containing flavonoids are active in mice with malaria and in vitro against chloroquine-resistant Plasmodium falciparum” (Memórias do Instituto Oswaldo Cruz, 2018).)
